Assay [1] concerns Molp8 multiple myeloma cell line. Kind of assay: Molp8 multiple myeloma cell line survival assay using Annexin V and 7AAD. The class given is cell-based, human. Conditions: live cell percent by Annexin V/7AAD flow cytometry, 3 days incubation; each independent run listed individually; read-out: MOLP8 Apoptosis IC50. The text has this: Molp8 multiple myeloma cell line survival assay using Annexin V and 7AAD.
The Annexin V/7AAD principle is based on the location of phosphatidylserine in the plasma membrane and the integrity of the membrane barrier. During early apoptosis, phosphatidylserine loses its normal distribution patterns in the inner leaflet of the plasma membrane and appears on the exterior of the plasma membrane. Annexin proteins are calcium dependent phospholipid binding proteins and can bind phosphatidylserine on the outer membrane during cell death. The viability dye 7AAD is excluded from entering cells with intact plasma membranes but accumulates in cells that have lost membrane integrity. Annexin Fitc is excited by the 488 nm laser (max excitation: 490 nm, max emission: 525 nm) as is 7AAD (excitation: 488 nm, emission: 650 nm), which allows this assay to be completed on any multicolor flow cytometer.
The assay conditions were optimized using the following 1× reaction buffer: 5 mM HEPES (4-(2-hydroxyethyl)-1-piperazineethanesulfonic acid), 70 mM NaCl, 1.25 mM CaCl2, pH 7.4.
The Molp 8 cells were multiple myeloma, human, in suspension (*cells were counted 2× per week and culture density maintained between 0.5 and 1.5×10^6 cells per ml).
On Day 1, 5×10^4 live cells per well were plated in a 96-well U-bottom plate, with the cells plated in 100 uL RPMI+10% FBS. An 11-point compound dilution plate was prepared in 3-fold steps (Final concentration range 10 μM-0.1 nM) and added at a concentration of 1 μL per well. The plate was then incubated for 3 days at 37° C. and 5% CO2.
On Day 4, the cells were pelleted and the media discarded. The cells were then resuspended in 50 μL AnnexinV-Fitc (1:40 dilution) and 7AAD (1:100 dilution) in Annexin binding buffer, then incubated for 30 min @ room temperature in the dark. 50 μL binding buffer (100 uL total volume) was then added to the cells. There was no wash step required.
Within 2 hours, PeCy5 (7AAD) and Fitc (Annexin) channels were recorded using BD Canto, collecting a minimum per singlet of 10,000 events.
The activity of a test compound was calculated based on the live cell percentage. • LC=Median of the low control values • =Low control: cells without treatment (no greater than 100% live) • HC=Median of the high control values • =High control: cells treated with 10 uM drug (no less than 0% live)
A best-fit curve was fitted by a minimum sum of squares method to the plot of live cell percent vs. compound concentration. From this an IC50 value (inhibitory concentration causing 50% cytotoxicity) was obtained. An estimate of the slope of the plot in terms of the Hill coefficient was also obtained.

The test system of assay [2] is MOLP-8 human multiple myeloma cell line. Kind of assay: MOLP8 Caspase-Glo 3/7 luminescent assay. Format: cell-based. Conditions: 2 hours incubation; averaged values over all runs on all batches. From the text: MCL-1 is a regulator of apoptosis and is highly over-expressed in tumor cells that escape cell death. The assay evaluates the cellular potency of small-molecule compounds targeting regulators of the apoptosis pathway, primarily MCL-1, Bfl-1, Bcl-2, and other proteins of the Bcl-2 family. Protein-protein inhibitors disrupting the interaction of anti-apoptotic regulators with BH3-domain proteins initiate apoptosis.
The Caspase-Glo® 3/7 Assay is a luminescent assay that measures caspase-3 and -7 activities in purified enzyme preparations or cultures of adherent or suspension cells. The assay provides a proluminescent caspase-3/7 substrate, which contains the tetrapeptide sequence DEVD. This substrate is cleaved to release aminoluciferin, a substrate of luciferase used in the production of light. Addition of the single Caspase-Glo® 3/7 Reagent in an “add-mix-measure” format results in cell lysis, followed by caspase cleavage of the substrate and generation of a “glow-type” luminescent signal.
This assay uses the MOLP-8 human multiple myeloma cell line, which is sensitive to MCL-1 inhibition.
Cell cultures were maintained between 0.2 and 2.0×10^6 cells/mL. The cells were harvested by collection in 50 mL conical tubes. The cells were then pelleted at 500 g for 5 mins before removing supernatant and resuspension in fresh pre-warmed culture medium. The cells were counted and diluted as needed.
The assay reagent was prepared by transferring the buffer solution to the substrate vial and mixing. The solution may be stored for up to 1 week at 4° C. with negligible loss of signal.
Compounds were delivered in assay-ready plates (Proxiplate) and stored at −20° C.
Assays always include 1 reference compound plate containing reference compounds. The plates were spotted with 40 nL of compounds (0.5% DMSO final in cells; serial dilution; 30 μM highest conc. ⅓ dilution, 10 doses, duplicates). The compounds were used at room temperature and 4 μL of pre-warmed media was added to all wells except column 2 and 23. The negative control was prepared by adding 1% DMSO in media. The positive control was prepared by adding the appropriate positive control compound in final concentration of 60 μM in media. The plate was prepared by adding 4 μL negative control to column 23, 4 μL positive control to column 2 and 4 μL cell suspension to all wells in the plate. The plate with cells was then incubated at 37° C. for 2 hours. The assay signal reagent is the Caspase-Glo solution described above, and 8 μL was added to all wells. The plates were then sealed and measured after 30 minutes.
The activity of a test compound was calculated as percent change in apoptosis induction as follows:
LC=median of the Low Control values • =Central Reference in Screener • =DMSO • =0% ΠC=Median of the High Control values • =Scale Reference in Screener • =30 pM of positive control • =100% apoptosis induction
% Effect (AC50)=100−(sample−LC)/(HC−LC)*100
% Control=(sample/HC)*100
% Control min=(sample−LC)/(HC−LC)*100

“And” between values parts separate entries of the source, which are not always exact repeats. Equal values may be shown once.

As usually defined, the IC50 is the concentration at which inhibition is half-maximal. In general, AC50 refers to the concentration at which the activity in the assay is half-maximal. High values mean activity only at high concentration, low ones activity at low concentration. Regarding `Cc1c(C(=O)O)n2c3ccc(Cl)c(c13)-c1c(nn(C)c1C)CSCc1cc(n(C)n1)CSc1cc(c3ccccc3c1)OCCC2` (single isomer, unassigned) [Compound 2, 1^5-chloro-1^3,2^1,2^5,6^1-tetramethyl-1′H,2′H,6H-10-oxa-4,8-dithia-1(4,1)-indola-2(4,3),6(3,5)-dipyrazola-9(3,1)-naphthalenacyclotridecaphane-1^2-carboxylic acid], the 50% inhibitory concentration (IC50) in assay [1] was 1300 nM and 7040 nM. In assay [2], half-maximal activity (AC50) was put at 10300 nM.

On to `Cc1c(C(=O)O)n2c3ccc(Cl)c(c13)-c1c(nn(C)c1C)CSCc1cc(n(C)n1)CSc1cc(c3ccccc3c1)OCCC2` (single isomer, unassigned) [Compound 1, 1^5-chloro-1^3,2^1,2^5,6^1-tetramethyl-1^1H,2^1H,6^1H-10-oxa-4,8-dithia-1(4,1)-indola-2(4,3),6(3,5)-dipyrazola-9(3,1)-naphthalenacyclotridecaphane-1^2-carboxylic acid], for which the IC50 in assay [1] is 54 nM and 106 nM. In assay [2], this compound came in with a concentration at half-maximal activity (AC50) of 50 nM.
